One series concerns LAK cells. Kind of series: LAK cell induction in vivo, 51Cr release of lymph node and spleen cells against RD-995 tumor. More on the design: species or system mice. The method, then:
Parallel groups of untreated mice or mice receiving M40403 alone (at the highest dose tested of 3 mg/kg) served as a control. […] A single cell suspension was prepared from the lymph nodes and spleen from each animal, and serial dilutions made (starting from 10^6). Cytolytic activity of lymph node and spleen cells was tested against ^51Cr-radiolabeled RD-995 tumor (NK resistant, LAK sensitive, 10^4 cells) in a standard 4h ^51Cr release assay at a varying effector to target cell ratio (in triplicate). […] Statistical comparison of specific cytotoxicity (e.g. at 100:1 effector to target ratio) and lytic units per organ will be performed using Student's t-test, using Bonferroni's correction for multiple analyses.

Series [1] has as its system mice. Kind of series: IL-2 dose escalation study with or without M40403 (deaths, blood pressure). Format: in vivo. The protocol:
Analysis was performed using Chart 3.6.1 software (AD instruments).

In the next series the test system is murine (mouse) LAK cell. Kind of series: LAK cell induction in vitro, murine splenocytes activated with IL-2, cytotoxicity against RD-995 tumor, trypan blue viability. Format: cell-based. The method, then: Non-M40403 exposed cultures served as a positive control. After 72 h, LAK cells were harvested and cell viability evaluated. LAK cells cytotoxicity was tested against RD-995 tumor in triplicate samples at varying effector to target cell ratios (expressed as mean±SD) using previously published methods (Yim et al., 1994; Samlowski et al., 1998).
Cell viability was assessed by trypan blue exclusion. Viability remained at 100% of control at up to 10 μM M40403 (not shown).

Another series deals with NO. Kind of series: Inhibition of NO (not shown).
Series [2] concerns mice. Kind of series: IL-2 induced hypotension in mice, systolic blood pressure via tail cuff. Format: in vivo. The protocol:
Parallel groups of untreated mice or mice receiving M40403 alone (at the highest dose tested of 3 mg/kg) served as a control. […] Analysis was performed using Chart 3.6.1 software (AD instruments).
Preliminary experiments were also performed with M40401.

Series [3] concerns Meth A tumor. Kind of series: Meth A fibrosarcoma tumor model (malignant ascites), survival. Format: in vivo, BALB/c mice. The source says: Meth A was induced in a BALB/c mouse by methylcholanthrene treatment (obtained from Lloyd Old, MSKCC). This very aggressive fibrosarcoma is one of the rare tumors resistant to LAK cell mediated cytolysis in vitro. […] See Yim et al., J. Immunol. 155: 4382-4390 (1995).
Survival of the mice was used as the major endpoint to assess therapeutic responses.

The test system of another series is RD-995 tumor. Kind of series: Rosenberg tumor model, RD-995 pulmonary metastases. Format: in vivo, mice. The protocol: RD-995 is a skin fibrosarcoma that was induced by chronic ultraviolet light exposure of a C3H/HeN mouse (Samlowski et al., 1995). This tumor grows in non-immunosuppressed mice, and is thus termed a “progressor” tumor.
Once stabilized, mice were injected with 10^6 RD-995 tumor cells intravenously. […] On day 14, mice were sacrificed by anesthetic overdose. After anterior thoracotomy, India ink solution (30 ml India ink, 4 drops ammonium hydroxide in 170 ml distilled water) was instilled into the trachea of each mouse via 18 ga. needle, until the lungs were completely expanded. Lungs were then excised and bleached in 5-10 ml Fekete's solution (100 ml 70% ethanol, 10 ml formaldehyde, 5 ml glacial acetic acid) for at least 24 h prior to enumeration of metastases using a magnifying lens.

Series [4] concerns Meth A tumor. Kind of series: NO-mediated apoptosis of Meth A tumor (not shown). Format: cell-based, mouse.
The mark [5] stands for this setting: M40403 3 mg/kg i.p. b.i.d. in conjunction with IL-2 180,000 IU for 5 days.
[6] abbreviates: M40403 at highest dose, 3 mg/kg b.i.d. for 5 days.

Entries after “also recorded” stand apart in the source; their conditions may differ.

This is an account of results in patent US20050175580A1, “Compositions and methods for enhancing cytokine activity and treating hypotension associated with the administration of cytokines” (priority 2001, published 2005).

With `[Cl-].[Cl-].[Mn+2].c1cc2nc(c1)CN[C@@H]1CCCC[C@H]1NCCN[C@@H]1CCCC[C@H]1NC2` [M40403], in the series with LAK cells (setting [5]), the “IL-2 induced LAK cells activation in vivo, lymph nodes” value is “significantly potentiated” and the “IL-2 induced LAK cells activation in vivo, spleen” value is on record as “significantly potentiated”. In the series with LAK cells (M40403 by itself, 3 mg/kg), the “LAK cell induction in vivo” value is “did not increase”. Also, in the series on mice [1] (M40403 3 mg/kg i.p. b.i.d. in conjunction with IL-2), the “blood pressure under escalating doses of IL-2” value is reported as “allowed BP to be maintained”. Moreover, the deaths in the series with mice [1] (M40403 3 mg/kg i.p. b.i.d. in conjunction with IL-2, all doses of IL-2 (180,000-400,000 IU)) is 0 deaths of 6 mice. The “effect on murine LAK cell activation by IL-2” value with murine (mouse) LAK cell (M40403 0-10 μM during IL-2 activation (6000 IU/ml rhIL-2), 72 h) was “did not adversely affect; also recorded: do not adversely affect”. Moreover, in the series with murine (mouse) LAK cell (increasing concentrations of M40403 during IL-2 activation), the “dose dependence of LAK cell activation” value is “dose-dependent increase”. Further, the cell viability with murine (mouse) LAK cell (up to 10 μM M40403, trypan blue exclusion) is on record as 100 % of control. The “inhibition of NO” value in the series on NO is “does not inhibit”. Further, in the series with mice [2] (setting [6]), the “effect on systolic blood pressure” value was “no effect on systolic blood pressure” and the signs of toxicity entry is on record as “no apparent signs of toxicity”. In addition, the “reversal / attenuation of IL-2 induced hypotension” value with mice [2] (SOD mimetic i.p. b.i.d. in conjunction with IL-2 180,000 IU for 5 days) is given as “attenuated in a dose-dependent manner”. Further, the “dose at which maximal / full reversal of IL-2 induced hypotension was obtained” value in the series on mice [2] (b.i.d. with IL-2 for 5 days) was 3 mg/kg. In addition, the “Mean Systolic BP” value in the series on mice [2] (mice, n=6 per group, IL-2 180,000 IU i.p. twice daily for 5 days, M40403 alone at 3 mg/kg, tail cuff two hours after last dose of IL-2) came out at 111.21. Also, the “systolic BP, mean” value in the series on mice [2] (mice, n=6 per group, IL-2 180,000 IU i.p. twice daily for 5 days, M40403 alone at 3 mg/kg, two hours after last dose of IL-2) is recorded as 111±45 mmHg. Moreover, the “IL-2 induced anti-tumor responses, combination of IL-2 with M40403” value in the series with Meth A tumor [3] (IL-2 180,000 IU s.c. with M40403 3 mg/kg s.c.) was “improves IL-2 induced anti-tumor responses”. Further, in the series on Meth A tumor [3] (M40403 itself, 3 mg/kg s.c.), the effect on survival entry was “did not affect survival”. Moreover, the “effect on the anti-tumor effects of IL-2” value with RD-995 tumor (M40403 3 mg/kg concurrently with IL-2) is “did not affect the anti-tumor effects of IL-2”. Further, the “number of tumor nodules in lungs” value in the series with RD-995 tumor (single agent, IL-2 180,000 IU i.p. every 12 h for 5 days or M40403 3 mg/kg, day 14) is “completely eliminated”. In the series on Meth A tumor [4], the “effect on NO-mediated apoptosis of Meth A tumor” value was “does not affect”.
